Measured values taken from patent US20260356819A1, “OXOISOINDOLINYL-SUBSTITUTED […] DERIVATIVE AND USE THEREOF” (GLUETACS THERAPEUTICS (SHANGHAI) CO., LTD., priority 2023, published 2026).

How the values were obtained:
Format in all cases: cell-based
Conditions in all cases: compounds at 50 nM and 500 nM
GSPT1 = target: T1, GSPT1 (Homo sapiens, UniProt P15170+Q96SW2); experiment: Western blot degradation of GSPT1 in hPBMCs (24 h)
T1 construct: The supernatant was aspirated as the extracted total cell protein; endogenous in cells; host or cells: human peripheral blood mononuclear cells (hPBMCs)
T1 sequence (P15170 whole entry): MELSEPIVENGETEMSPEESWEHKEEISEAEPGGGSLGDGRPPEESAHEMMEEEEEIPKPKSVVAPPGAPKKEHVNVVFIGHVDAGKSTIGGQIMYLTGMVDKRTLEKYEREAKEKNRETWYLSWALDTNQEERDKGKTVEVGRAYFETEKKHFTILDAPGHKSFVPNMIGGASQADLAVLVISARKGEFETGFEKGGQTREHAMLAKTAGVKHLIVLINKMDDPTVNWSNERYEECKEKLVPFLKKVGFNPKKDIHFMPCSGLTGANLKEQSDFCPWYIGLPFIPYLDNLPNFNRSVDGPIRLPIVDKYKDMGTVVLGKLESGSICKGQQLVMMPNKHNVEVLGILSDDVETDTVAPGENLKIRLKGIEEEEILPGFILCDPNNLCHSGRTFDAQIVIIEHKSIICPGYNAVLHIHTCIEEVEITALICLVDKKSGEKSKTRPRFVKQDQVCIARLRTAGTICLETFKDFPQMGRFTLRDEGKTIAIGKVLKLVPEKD
T1 sequence (Q96SW2 whole entry): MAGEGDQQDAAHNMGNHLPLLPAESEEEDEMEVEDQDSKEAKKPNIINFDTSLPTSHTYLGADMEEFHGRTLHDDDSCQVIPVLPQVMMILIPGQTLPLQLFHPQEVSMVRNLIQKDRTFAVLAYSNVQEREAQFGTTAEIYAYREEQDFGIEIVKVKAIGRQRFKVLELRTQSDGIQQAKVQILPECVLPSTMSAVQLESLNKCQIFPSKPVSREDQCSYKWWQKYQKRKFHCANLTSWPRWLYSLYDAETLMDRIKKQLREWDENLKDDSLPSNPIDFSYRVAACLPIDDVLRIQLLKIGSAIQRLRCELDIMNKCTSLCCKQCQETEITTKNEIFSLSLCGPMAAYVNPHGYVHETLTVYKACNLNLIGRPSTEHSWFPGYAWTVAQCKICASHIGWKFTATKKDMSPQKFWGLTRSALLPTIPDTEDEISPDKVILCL
T1 sequence (Q16531 whole entry partner): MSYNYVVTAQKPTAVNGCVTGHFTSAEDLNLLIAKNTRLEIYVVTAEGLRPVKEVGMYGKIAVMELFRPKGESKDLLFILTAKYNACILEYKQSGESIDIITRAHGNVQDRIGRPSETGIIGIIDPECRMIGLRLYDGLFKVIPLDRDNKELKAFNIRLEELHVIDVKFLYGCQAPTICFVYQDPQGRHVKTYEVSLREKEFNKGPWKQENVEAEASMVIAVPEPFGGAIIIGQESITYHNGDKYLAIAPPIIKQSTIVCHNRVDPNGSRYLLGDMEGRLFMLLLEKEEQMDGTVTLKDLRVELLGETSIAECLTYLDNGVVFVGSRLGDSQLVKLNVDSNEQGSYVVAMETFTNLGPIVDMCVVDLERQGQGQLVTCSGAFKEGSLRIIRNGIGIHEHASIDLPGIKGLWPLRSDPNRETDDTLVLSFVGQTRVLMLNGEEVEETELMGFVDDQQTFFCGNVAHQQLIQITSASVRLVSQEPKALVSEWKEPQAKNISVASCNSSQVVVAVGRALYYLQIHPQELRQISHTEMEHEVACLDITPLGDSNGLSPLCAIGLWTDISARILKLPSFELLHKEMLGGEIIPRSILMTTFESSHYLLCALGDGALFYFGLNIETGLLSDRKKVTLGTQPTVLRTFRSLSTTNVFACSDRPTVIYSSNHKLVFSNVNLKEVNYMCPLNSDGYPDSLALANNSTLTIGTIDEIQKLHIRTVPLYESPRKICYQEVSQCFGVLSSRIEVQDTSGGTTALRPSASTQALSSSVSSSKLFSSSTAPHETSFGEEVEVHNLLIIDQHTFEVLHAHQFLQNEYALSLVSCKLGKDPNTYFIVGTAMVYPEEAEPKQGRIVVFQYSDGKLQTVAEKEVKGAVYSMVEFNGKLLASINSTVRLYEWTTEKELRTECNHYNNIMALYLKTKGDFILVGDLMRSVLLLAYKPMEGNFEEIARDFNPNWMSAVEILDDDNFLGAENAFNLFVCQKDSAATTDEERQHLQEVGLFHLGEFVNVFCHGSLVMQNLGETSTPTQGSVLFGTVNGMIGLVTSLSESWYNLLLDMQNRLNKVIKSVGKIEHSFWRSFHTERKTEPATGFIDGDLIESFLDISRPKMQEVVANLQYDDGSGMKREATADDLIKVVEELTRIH
Summary of the method: (§1)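 PBMC Western blot, 24 h treatment; test levels 50 nM and 500 nM. Band density ÷ internal control, normalised → % remaining; degradation (%) = 1 − remaining.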

IKZF1 = target: T2, IKZF1 (Homo sapiens, UniProt Q13422+Q96SW2); experiment: Western blot degradation of IKZF1 in hPBMCs (24 h)
T2 construct: The supernatant was aspirated as the extracted total cell protein; endogenous in cells; host or cells: human peripheral blood mononuclear cells (hPBMCs)
T2 sequence (Q13422 whole entry): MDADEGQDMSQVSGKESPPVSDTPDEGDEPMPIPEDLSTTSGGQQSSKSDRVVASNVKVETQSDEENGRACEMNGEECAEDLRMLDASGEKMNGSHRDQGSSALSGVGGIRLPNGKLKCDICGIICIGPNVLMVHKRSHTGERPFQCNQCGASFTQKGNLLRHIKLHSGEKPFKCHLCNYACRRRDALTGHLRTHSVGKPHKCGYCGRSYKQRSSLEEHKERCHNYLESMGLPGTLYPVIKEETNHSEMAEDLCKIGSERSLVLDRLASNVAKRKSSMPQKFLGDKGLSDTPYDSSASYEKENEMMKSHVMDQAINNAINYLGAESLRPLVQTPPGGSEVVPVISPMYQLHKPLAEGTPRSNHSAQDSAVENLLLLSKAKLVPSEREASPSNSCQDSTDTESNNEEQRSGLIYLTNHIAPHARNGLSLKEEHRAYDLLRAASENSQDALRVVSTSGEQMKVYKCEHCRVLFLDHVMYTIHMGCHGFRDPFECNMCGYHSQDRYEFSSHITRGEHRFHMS
T2 sequence (Q96SW2 whole entry): as the sequence (Q96SW2 whole entry) above
T2 sequence (Q16531 whole entry partner): as the sequence (Q16531 whole entry partner) above
Summary of the method: as §1

IKZF3 = target: T3, IKZF3 (Homo sapiens, UniProt Q96SW2+Q9UKT9); experiment: Western blot degradation of IKZF3 in hPBMCs (24 h)
T3 construct: The supernatant was aspirated as the extracted total cell protein; endogenous in cells; host or cells: human peripheral blood mononuclear cells (hPBMCs)
T3 sequence (Q9UKT9 whole entry): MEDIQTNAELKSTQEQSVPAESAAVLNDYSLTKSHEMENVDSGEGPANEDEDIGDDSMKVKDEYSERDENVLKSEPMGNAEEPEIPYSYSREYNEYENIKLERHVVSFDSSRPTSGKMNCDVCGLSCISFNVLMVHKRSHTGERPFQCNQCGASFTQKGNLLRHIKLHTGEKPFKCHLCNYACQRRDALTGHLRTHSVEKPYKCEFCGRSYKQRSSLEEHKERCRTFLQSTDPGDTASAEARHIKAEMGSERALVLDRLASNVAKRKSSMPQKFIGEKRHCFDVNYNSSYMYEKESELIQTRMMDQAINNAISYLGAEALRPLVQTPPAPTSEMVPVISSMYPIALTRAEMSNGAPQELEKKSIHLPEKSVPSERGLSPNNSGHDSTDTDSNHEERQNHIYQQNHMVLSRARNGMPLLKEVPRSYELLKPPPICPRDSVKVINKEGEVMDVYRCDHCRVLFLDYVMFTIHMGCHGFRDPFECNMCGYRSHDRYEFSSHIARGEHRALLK
T3 sequence (Q96SW2 whole entry): as the sequence (Q96SW2 whole entry) above
T3 sequence (Q16531 whole entry partner): as the sequence (Q16531 whole entry partner) above
Summary of the method: as §1

IKZF2 = target: T4, IKZF2 (Homo sapiens, UniProt Q96SW2+Q9UKS7); experiment: Western blot degradation of IKZF2 in hPBMCs (24 h)
T4 construct: The supernatant was aspirated as the extracted total cell protein; endogenous in cells; host or cells: human peripheral blood mononuclear cells (hPBMCs)
T4 sequence (Q9UKS7 whole entry): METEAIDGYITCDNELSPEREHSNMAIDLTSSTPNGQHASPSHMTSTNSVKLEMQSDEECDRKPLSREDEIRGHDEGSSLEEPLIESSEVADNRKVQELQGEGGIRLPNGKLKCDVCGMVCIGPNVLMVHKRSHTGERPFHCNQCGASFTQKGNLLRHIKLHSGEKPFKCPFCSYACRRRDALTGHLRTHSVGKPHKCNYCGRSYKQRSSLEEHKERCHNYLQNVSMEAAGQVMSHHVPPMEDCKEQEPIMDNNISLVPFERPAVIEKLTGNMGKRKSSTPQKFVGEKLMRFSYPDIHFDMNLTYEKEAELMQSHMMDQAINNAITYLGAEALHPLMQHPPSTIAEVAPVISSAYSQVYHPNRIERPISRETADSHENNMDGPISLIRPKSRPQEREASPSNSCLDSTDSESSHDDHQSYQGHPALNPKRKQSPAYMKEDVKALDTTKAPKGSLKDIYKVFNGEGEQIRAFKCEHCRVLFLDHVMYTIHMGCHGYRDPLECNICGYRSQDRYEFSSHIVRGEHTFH
T4 sequence (Q96SW2 whole entry): as the sequence (Q96SW2 whole entry) above
T4 sequence (Q16531 whole entry partner): as the sequence (Q16531 whole entry partner) above
Summary of the method: as §1

CK1α = target: T5, CK1α (Homo sapiens, UniProt P48729+Q96SW2); experiment: Western blot degradation of CK1α in hPBMCs (24 h)
T5 construct: The supernatant was aspirated as the extracted total cell protein; endogenous in cells; host or cells: human peripheral blood mononuclear cells (hPBMCs)
T5 sequence (P48729 whole entry): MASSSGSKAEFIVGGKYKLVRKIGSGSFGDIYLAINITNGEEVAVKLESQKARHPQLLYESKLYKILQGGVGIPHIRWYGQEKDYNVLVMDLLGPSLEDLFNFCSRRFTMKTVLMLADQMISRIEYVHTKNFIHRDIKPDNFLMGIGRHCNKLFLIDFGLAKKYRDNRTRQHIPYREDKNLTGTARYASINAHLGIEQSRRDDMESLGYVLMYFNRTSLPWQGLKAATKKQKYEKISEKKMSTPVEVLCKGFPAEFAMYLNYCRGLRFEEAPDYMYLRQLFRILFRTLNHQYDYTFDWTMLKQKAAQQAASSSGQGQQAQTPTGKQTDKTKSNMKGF
T5 sequence (Q96SW2 whole entry): as the sequence (Q96SW2 whole entry) above
T5 sequence (Q16531 whole entry partner): as the sequence (Q16531 whole entry partner) above
Summary of the method: as §1

WEE1 = target: T6, WEE1 (Homo sapiens, UniProt P30291+Q96SW2); experiment: Western blot degradation of WEE1 in hPBMCs (24 h)
T6 construct: The supernatant was aspirated as the extracted total cell protein; endogenous in cells; host or cells: human peripheral blood mononuclear cells (hPBMCs)
Summary of the method: as §1

Structure (SMILES)	GSPT1 substrate protein remaining % (GSPT1)	IKZF1 substrate protein remaining % (IKZF1)	IKZF3 substrate protein remaining % (IKZF3)	IKZF2 substrate protein remaining % (IKZF2)	CK1α substrate protein remaining % (CK1α)	WEE1 substrate protein remaining % (WEE1)
O=C1CCN(N2C(=O)c3ccc(CN4CC=C(c5c[nH]c6cc(F)ccc56)CC4)cc3C2=O)C(=O)N1 [GT-07580, 2-(2,4-dioxotetrahydropyrimidin-1(2H)-yl)-5-((4-(6-fluoro-1H-indol-3-yl)-3,6-dihydropyridin-1(2H)-yl)methyl)isoindoline-1,3-dione]	A (0% ≤ substrate protein remaining % ≤80%)	A (0% ≤ substrate protein remaining % ≤80%)	A (0% ≤ substrate protein remaining % ≤80%)	A (0% ≤ substrate protein remaining % ≤80%)	B (80%< substrate protein remaining % ≤100%)	A (0% ≤ substrate protein remaining % ≤80%)
O=C1CCN(N2C(=O)c3ccc(CN4CCCN(C(c5ccccc5)c5ccccc5)CC4)cc3C2=O)C(=O)N1 [GT-07295, 5-((4-benzhydryl-1,4-diazepan-1-yl)methyl)-2-(2,4-dioxotetrahydropyrimidin-1(2H)-yl)isoindoline-1,3-dione]	A (0% ≤ substrate protein remaining % ≤80%)	B (80%< substrate protein remaining % ≤100%)	B (80%< substrate protein remaining % ≤100%)	B (80%< substrate protein remaining % ≤100%)	B (80%< substrate protein remaining % ≤100%)	B (80%< substrate protein remaining % ≤100%)
O=C1CCN(N2Cc3cc(CN4CCN(c5nccc(Cl)c5F)CC4)ccc3C2=O)C(=O)N1 [GT-05358, 1-(5-((4-(4-chloro-3-fluoropyridin-2-yl)piperazin-1-yl)methyl)-1-oxoisoindolin-2-yl)dihydropyrimidine-2,4(1H,3H)-dione]	A (0% ≤ substrate protein remaining % ≤80%)	B (80%< substrate protein remaining % ≤100%)	B (80%< substrate protein remaining % ≤100%)	B (80%< substrate protein remaining % ≤100%)	B (80%< substrate protein remaining % ≤100%)	B (80%< substrate protein remaining % ≤100%)
Cc1ccc(N2CCN(Cc3ccc4c(c3)CN(N3CCC(=O)NC3=O)C4=O)CC2)s1 [GT-05083, 1-(5-((4-(5-methylthiophen-2-yl)piperazin-1-yl)methyl)-1-oxoisoindolin-2-yl)dihydropyrimidine-2,4(1H,3H)-dione]	B (80%< substrate protein remaining % ≤100%)	B (80%< substrate protein remaining % ≤100%)	B (80%< substrate protein remaining % ≤100%)	A (0% ≤ substrate protein remaining % ≤80%)	B (80%< substrate protein remaining % ≤100%)	B (80%< substrate protein remaining % ≤100%)
Cc1cscc1C1=CCN(Cc2ccc3c(c2)C(=O)N(N2CCC(=O)NC2=O)C3=O)CC1 [GT-05316, 2-(2,4-dioxotetrahydropyrimidin-1(2H)-yl)-5-((4-(4-methylthiophen-3-yl)-3,6-dihydropyridin-1(2H)-yl)methyl)isoindoline-1,3-dione]	A (0% ≤ substrate protein remaining % ≤80%)	B (80%< substrate protein remaining % ≤100%)	B (80%< substrate protein remaining % ≤100%)	B (80%< substrate protein remaining % ≤100%)	B (80%< substrate protein remaining % ≤100%)	B (80%< substrate protein remaining % ≤100%)
O=C1CCN(N2C(=O)c3ccc(CN4CC=C(c5ncccc5F)CC4)cc3C2=O)C(=O)N1 [GT-07492, 2-(2,4-dioxotetrahydropyrimidin-1(2H)-yl)-5-((3-fluoro-3′,6′-dihydro-[2,4′-bipyridin]-1′ (2′H)-yl)methyl)isoindoline-1,3-dione]	B (80%< substrate protein remaining % ≤100%)	B (80%< substrate protein remaining % ≤100%)	B (80%< substrate protein remaining % ≤100%)	B (80%< substrate protein remaining % ≤100%)	A (0% ≤ substrate protein remaining % ≤80%)	B (80%< substrate protein remaining % ≤100%)
O=C1CCN(N2Cc3cc(CN4CCN(c5cc(Cl)ccn5)CC4)ccc3C2=O)C(=O)N1 [GT-05128, 1-(5-((4-(4-chloropyridin-2-yl)piperazin-1-yl)methyl)-1-oxoisoindolin-2-yl)dihydropyrimidine-2,4(1H,3H)-dione]	A (0% ≤ substrate protein remaining % ≤80%)	A (0% ≤ substrate protein remaining % ≤80%)	A (0% ≤ substrate protein remaining % ≤80%)	A (0% ≤ substrate protein remaining % ≤80%)	A (0% ≤ substrate protein remaining % ≤80%)	A (0% ≤ substrate protein remaining % ≤80%)
O=C1CCN(N2C(=O)c3ccc(CN4CCC(c5ncnc6sc7c(c56)CCCC7)CC4)cc3C2=O)C(=O)N1 [GT-08424, 2-(2,4-dioxotetrahydropyrimidin-1(2H)-yl)-5-((4-(5,6,7,8-tetrahydrobenzo[4,5]thieno[2,3-d]pyrimidin-4-yl)piperidin-1-yl)methyl)isoindoline-1,3-dione]	A (0% ≤ substrate protein remaining % ≤80%)	B (80%< substrate protein remaining % ≤100%)	B (80%< substrate protein remaining % ≤100%)	B (80%< substrate protein remaining % ≤100%)	A (0% ≤ substrate protein remaining % ≤80%)	B (80%< substrate protein remaining % ≤100%)
Cc1nc(N2CCN(Cc3ccc4c(c3)CN(N3CCC(=O)NC3=O)C4=O)CC2)c2c3c(sc2n1)CCCC3 [GT-08068, 1-(5-((4-(2-methyl-5,6,7,8-tetrahydrobenzo[4,5]thieno[2,3-d]pyrimidin-4-yl)piperazin-1-yl)methyl)-1-oxoisoindolin-2-yl)dihydropyrimidine-2,4(1H,3H)-dione]	B (80%< substrate protein remaining % ≤100%)	B (80%< substrate protein remaining % ≤100%)	B (80%< substrate protein remaining % ≤100%)	A (0% ≤ substrate protein remaining % ≤80%)	A (0% ≤ substrate protein remaining % ≤80%)	B (80%< substrate protein remaining % ≤100%)
O=C1CCN(N2Cc3cc(CN4CCN(c5ncccc5F)CC4)ccc3C2=O)C(=O)N1 [GT-05129, 1-(5-((4-(3-fluoropyridin-2-yl)piperazin-1-yl)methyl)-1-oxoisoindolin-2-yl)dihydropyrimidine-2,4(1H,3H)-dione]	A (0% ≤ substrate protein remaining % ≤80%)	A (0% ≤ substrate protein remaining % ≤80%)	A (0% ≤ substrate protein remaining % ≤80%)	A (0% ≤ substrate protein remaining % ≤80%)	A (0% ≤ substrate protein remaining % ≤80%)	A (0% ≤ substrate protein remaining % ≤80%)
Cc1nc(C2=CCN(Cc3ccc4c(c3)C(=O)N(N3CCC(=O)NC3=O)C4=O)CC2)c2c(-c3ccccc3)csc2n1 [GT-08484, 2-(2,4-dioxotetrahydropyrimidin-1(2H)-yl)-5-((4-(2-methyl-5-phenylthieno[2,3-d]pyrimidin-4-yl)-3,6-dihydropyridin-1(2H)-yl)methyl)isoindoline-1,3-dione]	A (0% ≤ substrate protein remaining % ≤80%)	A (0% ≤ substrate protein remaining % ≤80%)	A (0% ≤ substrate protein remaining % ≤80%)	A (0% ≤ substrate protein remaining % ≤80%)	A (0% ≤ substrate protein remaining % ≤80%)	A (0% ≤ substrate protein remaining % ≤80%)
